Patent publication US10538555B2, “Macrocyclic inhibitors of the PD-1/PD-L1 and CD80(B7-1)/PD-L1 protein/protein interactions” (BRISTOL-MYERS SQUIBB COMPANY, priority 2014, dated 2020)
*1 amine or outer side, *2 acyl side, *3 side chain or, on linkers, in order; H or OH if unused. Where a SMILES comes first, the peptide text is derived from it. Bridges are numbered along the chain shown (N, C = ends). [ ]: non-standard residue; d: D form. ξ: configuration not given here. Trp(1-CH2COOH) = N[C@@H](Cc1cn(CC(=O)O)c2ccccc12)C(=O)O; Trp(βS-Me) = C[C@@H](c1c[nH]c2ccccc12)[C@H](N)C(=O)O; Phe(3,4,5-F3) = N[C@@H](Cc1cc(F)c(F)c(F)c1)C(=O)O; Phe(3,4-F2) = N[C@@H](Cc1ccc(F)c(F)c1)C(=O)O; Trp(1-Me) = Cn1cc(C[C@H](N)C(=O)O)c2ccccc21; NMePhe(4-F) = CN[C@@H](Cc1ccc(F)cc1)C(=O)O; d(cisHyp) = O=C(O)[C@H]1C[C@@H](O)CN1; Hyp = O=C(O)[C@@H]1C[C@@H](O)CN1; NMeF = CN[C@@H](Cc1ccccc1)C(=O)O; X1 = O=C([C@H]1COCCN1[*:1])[*:2]; dNMeF = CN[C@H](Cc1ccccc1)C(=O)O; NMeE = CN[C@@H](CCC(=O)O)C(=O)O; dHyp = O=C(O)[C@H]1C[C@H](O)CN1; NMeNle = CCCC[C@H](NC)C(=O)O; dPip = O=C(O)[C@H]1CCCCN1; hSer = N[C@@H](CCO)C(=O)O; NMeA = CN[C@@H](C)C(=O)O; Orn = NCCC[C@H](N)C(=O)O; Dab = NCC[C@H](N)C(=O)O; Dap = NC[C@H](N)C(=O)O; ξC = NC(CS)C(=O)O

target: T1, Human PD-L1/PD-1 (Homo sapiens, UniProt Q9NZQ7); test: HTRF Human PD-L1/PD-1 binding assay (PD-1-Ig/PD-L1-His); conditions: PD-L1-His 10 nM, PD-1-Ig 20 nM; class symbol; read-out: HTRF Human PD-L1/PD-1 Binding Assay IC50 Range
T1 construct: TVMV protease cleavage site (C); made in house; host or cells: HEK293T cells
T1 sequence (Q9NZQ7 with tags, fused parts or gaps): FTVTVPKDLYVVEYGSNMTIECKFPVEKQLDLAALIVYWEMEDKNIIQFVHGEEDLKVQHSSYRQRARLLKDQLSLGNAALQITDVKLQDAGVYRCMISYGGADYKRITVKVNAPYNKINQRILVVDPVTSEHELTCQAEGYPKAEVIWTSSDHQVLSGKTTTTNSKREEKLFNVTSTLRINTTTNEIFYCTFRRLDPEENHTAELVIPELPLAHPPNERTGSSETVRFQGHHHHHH
Outline: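 Step 1: compound with PD-L1-His (10 nM final), 15 min. Step 2: PD-1-Ig (20 nM final), 15 min. Step 3: Eu-cryptate anti-Ig (1 nM) plus APC anti-His (20 nM), 30 min equilibration. Signal taken as 665 nm/620 nm ratio.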

Structure (SMILES)	IC50
CCCC[C@H]1C(=O)N2CCOC[C@@H]2C(=O)N[C@@H](CC(=O)O)C(=O)N[C@@H](C(C)C)C(=O)N(C)[C@@H](Cc2ccccc2)C(=O)N[C@@H](Cc2ccc(O)cc2)C(=O)N2C[C@H](O)C[C@@H]2C(=O)N[C@@H](Cc2c[nH]c3ccccc23)C(=O)N[C@@H](Cc2ccc(O)cc2)C(=O)N[C@@H](CCOC)C(=O)N[C@H](C(=O)NCC(N)=O)CSCC(=O)N[C@@H](Cc2cc(F)c(F)c(F)c2)C(=O)N(C)[C@@H](Cc2ccccc2)C(=O)N1C [Example 10183] ({CH2CO}-[Phe(3,4,5-F3)][NMeF][NMeNle][X1]DV[NMeF]Y[d(cisHyp)]WY[hSer](Me)CG-NH2; thioether N-13)	10 to 99.9 nM
CCCC[C@H]1C(=O)N(C)[C@@H](CCCC)C(=O)N[C@@H](CCC(=O)O)C(=O)NC(C(=O)NCC(N)=O)CSCC(=O)N[C@@H](Cc2ccc(O)cc2)C(=O)N(C)[C@@H](C)C(=O)N[C@@H](CC(N)=O)C(=O)N2CCC[C@H]2C(=O)N[C@@H](Cc2c[nH]cn2)C(=O)N[C@@H](CC(N)=O)C(=O)N2C[C@H](O)C[C@H]2C(=O)N[C@@H](Cc2c[nH]c3ccccc23)C(=O)N[C@@H](CCO)C(=O)N[C@@H](Cc2c[nH]c3ccccc23)C(=O)N1C (stereo partly drawn) [Example 9187] ({CH2CO}-Y[NMeA]NPHN[Hyp]W[hSer]W[NMeNle][NMeNle]E[ξC]G-NH2; thioether N-14)	1 to 9.9 nM
CCCC[C@H]1C(=O)N2C[C@H](O)C[C@@H]2C(=O)N[C@@H](CC(=O)O)C(=O)N[C@@H](C(C)C)C(=O)N(C)[C@@H](Cc2ccccc2)C(=O)N[C@@H](CCC(N)=O)C(=O)N2C[C@H](O)C[C@@H]2C(=O)N[C@@H](Cc2c[nH]c3ccccc23)C(=O)N[C@@H](Cc2ccc(O)cc2)C(=O)N[C@@H](CCN)C(=O)N[C@H](C(=O)NCC(N)=O)CSCC(=O)N[C@@H](Cc2cc(F)c(F)c(F)c2)C(=O)N(C)[C@@H](Cc2ccccc2)C(=O)N1C [Example 9355] ({CH2CO}-[Phe(3,4,5-F3)][NMeF][NMeNle][d(cisHyp)]DV[NMeF]Q[d(cisHyp)]WY[Dab]CG-NH2; thioether N-13)	1 to 9.9 nM
CCCC[C@H]1C(=O)N2C[C@@H](O)C[C@@H]2C(=O)N[C@@H](CC(=O)O)C(=O)N[C@@H](C(C)C)C(=O)N(C)[C@H](Cc2ccccc2)C(=O)N[C@@H](Cc2ccc(O)cc2)C(=O)N2CCC[C@@H]2C(=O)N[C@@H]([C@@H](C)c2c[nH]c3ccccc23)C(=O)N[C@@H](Cc2ccc(O)cc2)C(=O)N[C@@H](CC(C)C)C(=O)N[C@H](C(=O)NCC(N)=O)CSCC(=O)N[C@@H](Cc2cc(F)c(F)c(F)c2)C(=O)N(C)[C@@H](Cc2ccccc2)C(=O)N1C [Example 10640] ({CH2CO}-[Phe(3,4,5-F3)][NMeF][NMeNle][dHyp]DV[dNMeF]Y[dP][Trp(βS-Me)]YLCG-NH2; thioether N-13)	10 to 99.9 nM
CCCC[C@H]1C(=O)N2C[C@H](O)C[C@@H]2C(=O)N[C@@H](CC(=O)O)C(=O)N[C@@H](C(C)C)C(=O)N(C)[C@@H](Cc2ccccc2)C(=O)N[C@@H](Cc2ccc(O)cc2)C(=O)N2CCOC[C@@H]2C(=O)N[C@@H](Cc2c[nH]c3ccccc23)C(=O)N[C@@H](Cc2ccc(O)cc2)C(=O)N[C@@H](CC(C)C)C(=O)N[C@H](C(=O)NCC(N)=O)CSCC(=O)N[C@@H](Cc2cc(F)c(F)c(F)c2)C(=O)N(C)[C@@H](CCC(=O)O)C(=O)N1C [Example 10177] ({CH2CO}-[Phe(3,4,5-F3)][NMeE][NMeNle][d(cisHyp)]DV[NMeF]Y[X1]WYLCG-NH2; thioether N-13)	10 to 99.9 nM
CCCC[C@H]1C(=O)N(C)CC(=O)N[C@@H](CC(=O)O)C(=O)N[C@@H](C(C)C)C(=O)N(C)[C@@H](Cc2ccccc2)C(=O)N[C@@H](Cc2ccc(O)cc2)C(=O)N(C)CC(=O)NC(C)(Cc2c[nH]c3ccccc23)C(=O)N[C@@H](Cc2ccc(O)cc2)C(=O)N[C@@H](CC(C)C)C(=O)N[C@H](C(=O)NCC(N)=O)CSCC(=O)N[C@@H](Cc2ccccc2)C(=O)N(C)[C@@H](Cc2ccccc2)C(=O)N1C (single isomer, unassigned) [Example 3640-A]	100 to 990 nM

Continued, values first:

IC50	Structure (SMILES)
10 to 99.9 nM	CCCC[C@H]1C(=O)N2C[C@H](O)C[C@@H]2C(=O)N[C@@H](CC(=O)O)C(=O)N[C@@H](C(C)C)C(=O)N(C)[C@@H](Cc2ccccc2)C(=O)N[C@@H](CCC(=O)O)C(=O)N2C[C@H](O)C[C@@H]2C(=O)N[C@@H](Cc2c[nH]c3ccccc23)C(=O)N[C@@H](Cc2ccc(O)cc2)C(=O)N[C@@H](CN)C(=O)N[C@H](C(=O)NCC(N)=O)CSCC(=O)N[C@@H](Cc2cc(F)c(F)c(F)c2)C(=O)N(C)[C@@H](Cc2ccccc2)C(=O)N1C [Example 9334] ({CH2CO}-[Phe(3,4,5-F3)][NMeF][NMeNle][d(cisHyp)]DV[NMeF]E[d(cisHyp)]WY[Dap]CG-NH2; thioether N-13)
1 to 9.9 nM	CCCC[C@H]1C(=O)N(C)[C@@H](CCCC)C(=O)N[C@@H](CCCNC(=N)N)C(=O)NC(C(=O)NCC(N)=O)CSCC(=O)N[C@@H](Cc2ccc(O)cc2)C(=O)N(C)[C@@H](C)C(=O)N[C@@H](CC(N)=O)C(=O)N2CCC[C@H]2C(=O)N[C@@H](CO)C(=O)N[C@@H](CCO)C(=O)N2C[C@H](O)C[C@H]2C(=O)N[C@@H](Cc2c[nH]c3ccccc23)C(=O)N[C@@H](CCO)C(=O)N[C@@H](Cc2c[nH]c3ccccc23)C(=O)N1C (stereo partly drawn) [Example 10052] ({CH2CO}-Y[NMeA]NPS[hSer][Hyp]W[hSer]W[NMeNle][NMeNle]R[ξC]G-NH2; thioether N-14)
10 to 99.9 nM	CCCC[C@H]1C(=O)N(C)[C@@H](CCCC)C(=O)N[C@@H](C)C(=O)N[C@H](C(=O)NCC(N)=O)CSCC(=O)N[C@@H](Cc2ccc(O)cc2)C(=O)N(C)[C@@H](C)C(=O)N[C@@H](CC(N)=O)C(=O)N2CCC[C@H]2C(=O)N[C@@H](Cc2cnc[nH]2)C(=O)N[C@@H](CCC(N)=O)C(=O)N2CCOC[C@H]2C(=O)N[C@@H](Cc2c[nH]c3ccccc23)C(=O)N[C@@H](CO)C(=O)N[C@@H](Cc2c[nH]c3ccccc23)C(=O)N1C [Example 1279]
1 to 9.9 nM	CCCC[C@H]1C(=O)N2CCC[C@@H]2C(=O)N[C@@H](CN)C(=O)N[C@@H](C(C)C)C(=O)N(C)[C@@H](Cc2ccccc2)C(=O)N[C@@H](CC(=O)O)C(=O)N2CCCC[C@@H]2C(=O)N[C@@H](Cc2c[nH]c3ccccc23)C(=O)N[C@@H](Cc2ccc(O)cc2)C(=O)N[C@@H](CC(C)C)C(=O)N[C@H](C(=O)NCC(N)=O)CSCC(=O)N[C@@H](Cc2cc(F)c(F)c(F)c2)C(=O)N(C)[C@@H](Cc2ccc(F)cc2)C(=O)N1C [Example 10582] ({CH2CO}-[Phe(3,4,5-F3)][NMePhe(4-F)][NMeNle][dP][Dap]V[NMeF]D[dPip]WYLCG-NH2; thioether N-13)
1 to 9.9 nM	CCCC[C@H]1C(=O)N(C)[C@@H](CCCC)C(=O)N[C@@H](C)C(=O)N[C@H](C(=O)NCC(N)=O)CSCC(=O)N[C@@H](Cc2ccc(O)cc2)C(=O)N(C)[C@@H](C)C(=O)N[C@@H](CC(=O)O)C(=O)N2CCC[C@H]2C(=O)N[C@@H](Cc2cnc[nH]2)C(=O)N[C@@H](CCC(N)=O)C(=O)N2C[C@H](O)C[C@H]2C(=O)N[C@@H](Cc2c[nH]c3ccccc23)C(=O)N[C@@H](CCN)C(=O)N[C@@H](Cc2cn(CC(=O)O)c3ccccc23)C(=O)N1C [Example 6158] ({CH2CO}-Y[NMeA]DPHQ[Hyp]W[Dab][Trp(1-CH2COOH)][NMeNle][NMeNle]ACG-NH2; thioether N-14)
1 to 9.9 nM	CCCC[C@H]1C(=O)N2C[C@H](O)C[C@@H]2C(=O)N[C@@H](CC(=O)O)C(=O)N[C@@H](C(C)C)C(=O)N(C)[C@@H](Cc2ccccc2)C(=O)N[C@@H](CCCN)C(=O)N2C[C@H](O)C[C@@H]2C(=O)N[C@@H](Cc2c[nH]c3ccccc23)C(=O)N[C@@H](Cc2ccc(O)cc2)C(=O)N[C@@H](CC(C)C)C(=O)N[C@H](C(=O)NCC(N)=O)CSCC(=O)N[C@@H](Cc2ccc(F)c(F)c2)C(=O)N(C)[C@@H](Cc2ccccc2)C(=O)N1C [Example 9296] ({CH2CO}-[Phe(3,4-F2)][NMeF][NMeNle][d(cisHyp)]DV[NMeF][Orn][d(cisHyp)]WYLCG-NH2; thioether N-13)
10 to 99.9 nM	CCCC[C@H]1C(=O)N(C)[C@@H](CCCC)C(=O)N[C@@H](C)C(=O)N[C@H](C(=O)NCC(N)=O)CSCC(=O)N[C@@H](Cc2ccc(O)cc2)C(=O)N(C)[C@@H](C)C(=O)N[C@@H](CC(=O)O)C(=O)N2CCC[C@H]2C(=O)N[C@@H](Cc2c[nH]cn2)C(=O)N[C@@H](CCC(N)=O)C(=O)N2C[C@H](O)C[C@H]2C(=O)N[C@@H](Cc2c[nH]c3ccccc23)C(=O)N[C@@H](CO)C(=O)N[C@@H](Cc2cn(C)c3ccccc23)C(=O)N1C [Example 1501] ({CH2CO}-Y[NMeA]DPHQ[Hyp]WS[Trp(1-Me)][NMeNle][NMeNle]ACG-NH2; thioether N-14)
1 to 9.9 nM	CCCC[C@H]1C(=O)N2C[C@H](O)C[C@@H]2C(=O)N[C@@H](CC(=O)O)C(=O)N[C@@H](C(C)C)C(=O)N(C)[C@@H](Cc2ccccc2)C(=O)N[C@@H](CCCCN)C(=O)N2C[C@H](O)C[C@@H]2C(=O)N[C@@H](Cc2c[nH]c3ccccc23)C(=O)N[C@@H](Cc2ccc(O)cc2)C(=O)N[C@@H](CCCN)C(=O)N[C@H](C(=O)NCC(N)=O)CSCC(=O)N[C@@H](Cc2ccc(F)c(F)c2)C(=O)N(C)[C@@H](Cc2ccccc2)C(=O)N1C [Example 9306] ({CH2CO}-[Phe(3,4-F2)][NMeF][NMeNle][d(cisHyp)]DV[NMeF]K[d(cisHyp)]WY[Orn]CG-NH2; thioether N-13)
1 to 9.9 nM	CCCC[C@H]1C(=O)N2C[C@H](O)C[C@@H]2C(=O)N[C@@H](CC(=O)O)C(=O)N[C@@H](C(C)C)C(=O)N(C)[C@@H](Cc2ccccc2)C(=O)N[C@@H](CC(=O)O)C(=O)N2C[C@H](O)C[C@@H]2C(=O)N[C@@H](Cc2c[nH]c3ccccc23)C(=O)N[C@@H](Cc2ccc(O)cc2)C(=O)N[C@@H](CCCCN)C(=O)N[C@H](C(=O)NCC(N)=O)CSCC(=O)N[C@@H](Cc2cc(F)c(F)c(F)c2)C(=O)N(C)[C@@H](Cc2ccccc2)C(=O)N1C [Example 9345] ({CH2CO}-[Phe(3,4,5-F3)][NMeF][NMeNle][d(cisHyp)]DV[NMeF]D[d(cisHyp)]WYKCG-NH2; thioether N-13)
